Experiments:
Conditions in all cases: 72 h
BT-549 = test system: BT-549
Method in brief: (§1)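 The plates used were 384-well plates holding compound at 5 concentrations in 10-fold steps across a compound-specific 10,000-fold range, into which breast cancer cell lines were seeded in 20 µl suspension. Following 72 h incubation, CellTox Green fluorescence was read at 485/520 nm, and CellTiter-Glo luminescence was read after 10 min at room temperature. Normalisation on each plate used 0.1 % DMSO and a positive kill control. Dose-response curves gave the EC50, which was censored at the top concentration.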

HCC1143 = test system: HCC1143
Method in brief: as §1

HDQ-P1 = test system: HDQ-P1
Method in brief: as §1

HCC1599 = test system: HCC1599
Method in brief: as §1

MDA-MB-453 = test system: MDA-MB-453
Method in brief: as §1

## COC(=O)c1ccc2c(c1)NC(=O)/C2=C(\Nc1ccc(N(C)C(=O)CN2CCN(C)CC2)cc1)c1ccccc1 [Nintedanib]
BT-549
  EC50, CellTox Green: 6880 nM

## CC(C)C[C@@H](C(=O)N[C@H](C(=O)OC1CCCC1)c1ccccc1)[C@H](O)C(=O)NO [Tosedostat]
HCC1143
  EC50, CellTox Green: 7200 nM
BT-549
  EC50, CellTox Green: 1390 nM
HDQ-P1
  EC50, CellTox Green: 851 nM

## Nc1cc(C(F)(F)F)c(-c2cc(N3CCOCC3)nc(N3CCOCC3)n2)cn1 [Buparlisib]
BT-549
  EC50, CellTox Green: 7700 nM

## CCOC(=O)CCNc1cc(N2CCc3ccccc3CC2)nc(-c2ccccn2)n1 [GSK-J4]
HCC1599
  EC50, CellTox Green: 5440 nM
HCC1143
  EC50, CellTox Green: 321 nM
BT-549
  EC50, CellTox Green: 17800 nM
MDA-MB-453
  EC50, CellTox Green: 22600 nM
HDQ-P1
  EC50, CellTox Green: 9770 nM

## Cc1ccc(NC(=O)c2ccc(CN3CCN(C)CC3)cc2)cc1Nc1nc(-c2cccnc2)cs1 [Masitinib]
HCC1599
  EC50, CellTox Green: 8820 nM

## COc1cc2c(NC3CCN(C(C)C)CC3)nc(N3CCC(F)(F)CC3)nc2cc1OCCCN1CCCC1 [UNC0642]
MDA-MB-453
  EC50, CellTox Green: 7170 nM

## O=C(/C=C/c1cccc(S(=O)(=O)Nc2ccccc2)c1)NO [Belinostat]
MDA-MB-453
  EC50, CellTox Green: > 10000 nM

## Cc1[nH]c2ccccc2c1CCNCc1ccc(/C=C/C(=O)NO)cc1 [Panobinostat]
HCC1599
  EC50, CellTox Green: 112 nM
HCC1143
  EC50, CellTox Green: 71.7 nM
MDA-MB-453
  EC50, CellTox Green: 43 nM
HDQ-P1
  EC50, CellTox Green: 193 nM

## COCC[n+]1c2c(n(Cc3cnccn3)c1C)C(=O)c1ccccc1C2=O [YM155]
HCC1599
  EC50, CellTox Green: 58.5 nM
HCC1143
  EC50, CellTox Green: 1.59 nM
BT-549
  EC50, CellTox Green: 272 nM
MDA-MB-453
  EC50, CellTox Green: 347 nM
HDQ-P1
  EC50, CellTox Green: 33 nM

## COc1cc(OC2CCN(C)CC2)ccc1Nc1ncc2c(n1)n(C1CCCC1)c(=O)n2C [AZ 3146]
HCC1599
  EC50, CellTox Green: > 10000 nM

## CO[C@H]1C[C@@H]2CC[C@@H](C)[C@@](O)(O2)C(=O)C(=O)N2CCCC[C@H]2C(=O)O[C@H]([C@H](C)C[C@@H]2CC[C@@H](OP(C)(C)=O)[C@H](OC)C2)CC(=O)[C@H](C)/C=C(\C)[C@@H](O)[C@@H](OC)C(=O)[C@H](C)C[C@H](C)/C=C/C=C/C=C/1C [Ridaforolimus]
HDQ-P1
  EC50, CellTox Green: 0.35 nM
